Here are results for five compounds from patent US8609065B2, “Molecules for targeting compounds to various selected organs, tissues or tumor cells” (Prosensa Technologies B.V., priority 2007, dated 2013).

Peptide text beside a SMILES is read from it.

Data set [1] in a line: In vivo targeting to brain cells, Cy5-labeled peptide imaging. The conditions noted are these: 7 nmol intravenously, nude mouse. The method, then: Peptide THRPPMWSPVWP (SEQ ID NO: 1) was labeled with a Cy5 fluorescent label and 7 nmol was injected intravenously into the tail vein of a nude mouse. Pictures were taken with a Maestro imaging system using the filters for Cy5 detection.
On the left side of FIGS. 1A and 1B the detected Cy5 pattern is shown separately in red for quantitation. The numbers on the left side indicate the amount of detected Cy5 label.

The test system of another data set is KM109 cells. As to the kind of experiment: Uptake of fluorescently labeled variants of THRPPMWSPVWP on KM109 cells. The conditions noted are these: fluorescently labeled peptide. In kind it is cell-based. As to the method: Several variants of peptide THRPPMWSPVWP (SEQ ID NO: 1) (see Table 2) were selected, synthesized with a fluorescent label and tested for uptake on KM109 cells. Peptides 3, 7, 8, 9, 10, and 11 were tested. […] The other peptides depicted in the table below are yet to be tested for uptake on KM109 cells. Moreover, all peptides are to be tested for uptake on neuroblastoma cells in a similar fashion.

For the next data set, the system named is muscle cells. As to the kind of experiment: Selective uptake by muscle cells (summary statement). In kind it is cell-based. From the text:
Therefore, these may be used for targeting diagnostic moieties or biologically active moieties to an organ or tissue or cell type of interest, especially to muscle cells or across the blood brain barrier to brain cells, to neuronal cells or to tumor cells of neuronal or neuroectodermal origin.

The test system of data set [2] is N1E-115 mouse neuroblastoma cells. Description: In vitro uptake of FAM-labeled peptides into neuroblastoma cells (fluorescence microscopy). In kind it is cell-based. The note with it: FAM-labeled peptide, N1E-115 cells. The method, then: A selection of peptides was synthesized and provided with a fluorescent label (FAM) and screened for uptake on mouse neuroblastoma cells in vitro.
N1E-115 mouse neuroblastoma cells were incubated with the FAM-labeled peptides and photographed with an inverted fluorescence microscope, without previous fixation.

On to `CSCC[C@H](NC(=O)[C@@H]1CCCN1C(=O)[C@@H]1CCCN1C(=O)[C@H](CCCNC(=N)N)NC(=O)[C@H](Cc1c[nH]cn1)NC(=O)[C@@H](N)[C@@H](C)O)C(=O)N[C@@H](Cc1c[nH]c2ccccc12)C(=O)N[C@@H](CO)C(=O)N1CCC[C@H]1C(=O)N[C@H](C(=O)N[C@@H](Cc1c[nH]c2ccccc12)C(=O)N1CCC[C@H]1C(=O)O)C(C)C` [THRPPMWSPVWP] (H-THRPPMWSPVWP-OH; N-terminus and C-terminus assumed), for which the “crossing of the blood brain barrier” value in data set [1] is “able to cross the blood brain barrier”. Further, in data set [1] (20 minutes after injection), the “Cy5 signal in the brain” value is “clear signal could be detected in the brain”.
With HRPPMWSPVW, the “uptake on KM109 cells” value in the data set with KM109 cells is given as “taken up, although at a lower level”. The “selective uptake by muscle cells” value with muscle cells is “selectively taken up by muscle cells”.
In the same order, the values of HRPPMWSPVWP are “taken up very efficiently” and “selectively taken up by muscle cells”.
Take LPWKPLG: the “intracellular staining pattern after uptake” value in data set [2] is reported as “uniform staining of the cytoplasm as well as the nucleus”. The “uptake by the neuroblastoma cells” value in data set [2] (inverted fluorescence microscope, no fixation) is “efficiently taken up”.
For the compound THRPPMWS, the “uptake on KM109 cells” value in the data set on KM109 cells is listed as “taken up, although at a lower level”. In the data set on muscle cells, the “selective uptake by muscle cells” value is recorded as “selectively taken up by muscle cells”.
